Data taken from ChEMBL document CHEMBL1201862, “PubChem BioAssay data set” (2004).
Active and inactive are the calls of the source.

Assays:
[1] = biological target: Induced myeloid leukemia cell differentiation protein Mcl-1 (Homo sapiens, UniProt Q07820); type: functional
[2] = biological target: G-protein coupled receptor 55 (Homo sapiens, UniProt Q9Y2T6); test: GPR55 agonists via beta-arrestin recruitment, primary screen, imaging, U2OS cells, beta-arrestin-GFP redistribution (AID 1961); type: functional
[3] = biological target: T1, Replicative DNA helicase DnaB (Mycobacterium tuberculosis, UniProt P9WMR3); test: DnaB intein splicing inhibitors, dose response, biochemical, cell-free fluorescence (AID 449749); type: functional
T1 sequence (P9WMR3 whole entry): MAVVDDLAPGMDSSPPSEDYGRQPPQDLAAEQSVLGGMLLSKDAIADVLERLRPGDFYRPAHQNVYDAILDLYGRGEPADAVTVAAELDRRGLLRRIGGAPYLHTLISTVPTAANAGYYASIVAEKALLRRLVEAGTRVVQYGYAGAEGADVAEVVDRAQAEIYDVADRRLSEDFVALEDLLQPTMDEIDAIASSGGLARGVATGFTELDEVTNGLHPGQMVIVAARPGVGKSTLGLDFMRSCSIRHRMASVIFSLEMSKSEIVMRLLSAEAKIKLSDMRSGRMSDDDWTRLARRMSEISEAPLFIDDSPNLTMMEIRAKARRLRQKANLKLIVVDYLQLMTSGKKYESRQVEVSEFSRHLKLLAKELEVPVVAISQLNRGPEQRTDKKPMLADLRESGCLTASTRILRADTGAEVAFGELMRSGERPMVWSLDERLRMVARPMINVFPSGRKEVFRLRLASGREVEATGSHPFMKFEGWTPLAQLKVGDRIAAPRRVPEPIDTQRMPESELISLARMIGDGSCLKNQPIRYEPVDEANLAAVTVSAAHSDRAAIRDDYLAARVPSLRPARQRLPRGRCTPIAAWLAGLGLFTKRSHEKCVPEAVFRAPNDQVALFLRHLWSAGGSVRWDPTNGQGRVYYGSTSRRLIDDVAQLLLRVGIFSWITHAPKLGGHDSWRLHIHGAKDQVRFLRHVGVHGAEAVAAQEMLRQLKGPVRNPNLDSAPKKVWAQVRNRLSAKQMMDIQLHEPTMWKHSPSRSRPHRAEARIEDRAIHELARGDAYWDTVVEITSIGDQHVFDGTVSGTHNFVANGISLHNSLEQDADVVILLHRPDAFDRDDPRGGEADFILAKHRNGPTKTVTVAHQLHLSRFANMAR

[4] = cytotoxicity in HEK-293T cells, dose response, cytotoxicity control for BCR NF-kB inhibitor project, luminescence, B-cell screen hits (AID 489021); type: functional, cell-based;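 also: HEK-293T cells carrying an NF-kB luciferase reporter; cells exposed to compound for about 14 hours before viability readout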
Protein RecA = biological target: T2, Protein RecA (Mycobacterium tuberculosis, UniProt P9WHJ3); test: Fluorescence Cell-Free Homogeneous Dose Retest to Identify Inhibitors of RecA-Intein Splicing Activity. [Related pubchem assays (depositor defined):AID2097, AID2223, AID489010, AID492950]; type: functional
T2 sequence (P9WHJ3 whole entry): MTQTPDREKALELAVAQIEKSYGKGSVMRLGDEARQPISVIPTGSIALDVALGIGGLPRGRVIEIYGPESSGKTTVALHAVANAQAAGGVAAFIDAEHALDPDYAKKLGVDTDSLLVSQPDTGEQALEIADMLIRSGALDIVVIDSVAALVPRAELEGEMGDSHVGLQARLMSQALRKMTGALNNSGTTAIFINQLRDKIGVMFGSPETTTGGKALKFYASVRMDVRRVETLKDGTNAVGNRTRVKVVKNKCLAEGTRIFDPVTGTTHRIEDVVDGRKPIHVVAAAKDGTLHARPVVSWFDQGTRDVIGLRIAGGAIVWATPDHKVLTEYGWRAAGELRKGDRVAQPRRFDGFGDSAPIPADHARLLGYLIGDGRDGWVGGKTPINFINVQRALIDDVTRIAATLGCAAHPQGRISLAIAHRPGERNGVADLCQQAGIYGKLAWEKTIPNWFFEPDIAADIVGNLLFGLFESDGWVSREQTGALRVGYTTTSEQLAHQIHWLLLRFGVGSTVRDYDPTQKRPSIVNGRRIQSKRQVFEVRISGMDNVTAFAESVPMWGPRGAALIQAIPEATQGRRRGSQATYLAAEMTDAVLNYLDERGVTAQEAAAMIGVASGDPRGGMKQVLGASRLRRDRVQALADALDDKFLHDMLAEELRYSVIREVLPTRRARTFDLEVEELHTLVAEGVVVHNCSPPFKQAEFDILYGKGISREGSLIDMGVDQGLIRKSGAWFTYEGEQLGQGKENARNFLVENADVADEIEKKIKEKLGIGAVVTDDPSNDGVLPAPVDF

[5] = biological target: T3, Alkaline phosphatase, tissue-nonspecific isozyme (Homo sapiens, UniProt P05186); test: human TNAP enzyme inhibitors, SAR follow-up, biochemical, luminescent, dose response (AID 1056)
T3 sequence (P05186 whole entry): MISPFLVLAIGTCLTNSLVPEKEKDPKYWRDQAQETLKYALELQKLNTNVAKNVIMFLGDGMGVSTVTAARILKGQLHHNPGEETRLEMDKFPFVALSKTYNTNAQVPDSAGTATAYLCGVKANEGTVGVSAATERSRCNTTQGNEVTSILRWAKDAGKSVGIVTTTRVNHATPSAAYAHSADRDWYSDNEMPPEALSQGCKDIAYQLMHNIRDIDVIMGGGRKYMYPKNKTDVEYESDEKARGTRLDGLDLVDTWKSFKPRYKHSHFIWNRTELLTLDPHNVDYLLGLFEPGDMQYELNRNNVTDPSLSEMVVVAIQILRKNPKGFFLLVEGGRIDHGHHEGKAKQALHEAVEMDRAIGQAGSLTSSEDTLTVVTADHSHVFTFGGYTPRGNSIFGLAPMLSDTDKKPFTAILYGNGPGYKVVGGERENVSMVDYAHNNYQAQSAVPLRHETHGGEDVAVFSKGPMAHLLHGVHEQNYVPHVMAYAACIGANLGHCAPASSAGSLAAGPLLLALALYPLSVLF

[6] = biological target: Glyceraldehyde-3-phosphate dehydrogenase (Homo sapiens, UniProt P04406)
[7] = growth suppression of beta-catenin-knockout colon cells, dose response, cell-based, HCT116, human colon tumor (AID 1045); type: functional;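 also: HCT116 colon tumor cells with beta catenin knocked out; cells exposed to compound for 60 hours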
[8] = biological target: Neurotensin receptor type 1 (Homo sapiens, UniProt P30989); type: functional;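 also: Image-based confirmatory dose-response assay measuring agonist activity at NTR1; NTR1-expressing U2OS osteosarcoma cells imaged for beta-arrestin GFP spot formation; agonist potency where compounds increase beta-arrestin recruitment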
[9] = growth suppression of PTEN-null colon cells, dose response, cell-based, HCT116 PTEN knockout (AID 1047); type: functional;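 also: HCT116 colon tumor cells with PTEN knocked out; cells exposed to compound for 60 hours before readout; potency for loss of cell viability measured by luminescence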
Prothrombin = Prothrombin (Homo sapiens, UniProt P00734); test: Thrombin 1536 HTS Dose Response Confirmation. [Related pubchem assays: 1046 (Thrombin 1536 HTS; hits were confirmed in this assay)]; type: functional
Bcl-2-like protein 10 = biological target: T4, Bcl-2-like protein 10 (Homo sapiens, UniProt Q9HD36); test: displacers of TR3 peptide from Bcl-B, primary screen, selectivity assay for Bfl-1 inhibitor project, biochemical, fluorescence polarization, FITC-TR3 peptide (AID 748);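 also: fluorescence polarization from a fluorescein-labelled TR3 peptide binding purified Bcl-B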
T4 sequence (Q9HD36 whole entry): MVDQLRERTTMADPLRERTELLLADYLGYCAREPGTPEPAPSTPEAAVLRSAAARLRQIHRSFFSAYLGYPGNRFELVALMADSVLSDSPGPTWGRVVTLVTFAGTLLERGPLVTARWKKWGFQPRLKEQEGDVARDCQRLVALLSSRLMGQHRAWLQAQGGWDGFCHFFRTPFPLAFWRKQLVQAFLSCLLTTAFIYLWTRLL

[10] = HepG2 cell cytotoxicity, dose response, cytotoxicity control for non-replicating M. tuberculosis project (AID 489018); type: functional; details: Mycobacterium tuberculosis
cells = type: functional
[11] = THP-1 cell cytotoxicity, dose response, cytotoxicity control for non-replicating M. tuberculosis project (AID 489025); type: functional
[12] = biological target: T5, RNA-binding protein pos-1 (Caenorhabditis elegans, UniProt G5EF15); test: inhibitors of POS-1/mex-3 RNA binding, dose response, biochemical, fluorescence polarization (AID 1964);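 also: purified POS-1 fused to maltose binding protein made in E. coli; potency of compounds blocking POS-1 binding to fluorescent RNA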
T5 sequence (G5EF15 whole entry): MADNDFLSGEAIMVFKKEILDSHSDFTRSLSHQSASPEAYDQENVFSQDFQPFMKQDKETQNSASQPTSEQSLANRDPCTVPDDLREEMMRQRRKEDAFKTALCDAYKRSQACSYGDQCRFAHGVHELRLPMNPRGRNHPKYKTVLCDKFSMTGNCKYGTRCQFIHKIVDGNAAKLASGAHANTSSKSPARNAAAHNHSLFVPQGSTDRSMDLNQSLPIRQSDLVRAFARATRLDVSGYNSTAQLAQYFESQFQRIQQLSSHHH

[13] = biological target: T6, Zinc finger protein mex-5 (Caenorhabditis elegans, UniProt Q9XUB2); test: MEX-5/TCR-2 RNA interaction inhibitors, dose response, biochemical, C. elegans, fluorescence polarization (AID 1960)
T6 sequence (Q9XUB2 whole entry): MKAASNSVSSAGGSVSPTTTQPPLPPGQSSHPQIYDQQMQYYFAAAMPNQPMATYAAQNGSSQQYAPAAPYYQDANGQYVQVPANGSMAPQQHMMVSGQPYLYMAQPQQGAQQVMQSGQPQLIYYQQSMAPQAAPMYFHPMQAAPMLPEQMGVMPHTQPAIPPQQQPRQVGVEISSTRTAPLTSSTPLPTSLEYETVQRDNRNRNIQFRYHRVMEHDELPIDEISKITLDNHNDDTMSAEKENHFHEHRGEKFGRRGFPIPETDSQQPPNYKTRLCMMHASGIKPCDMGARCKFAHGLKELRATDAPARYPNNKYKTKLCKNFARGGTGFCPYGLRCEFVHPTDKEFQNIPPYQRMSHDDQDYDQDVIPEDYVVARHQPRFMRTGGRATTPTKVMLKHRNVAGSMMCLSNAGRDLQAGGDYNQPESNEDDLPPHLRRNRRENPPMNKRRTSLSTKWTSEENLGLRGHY

[14] = Counterscreen for IDE inhibitors: Luminescence-based cell-based high throughput dose response assay to identify compounds that are cytotoxic to HEK cells. [Related pubchem assays: 434962 (Primary screen (IDE inhibitors in singlicate)), 449730 (Counterscreen (Cytotoxicity in triplicate)), 435028 (Confirmation (IDE inhibitors in triplicate)) …; type: functional; details: HEK293
Insulin-degrading enzyme = biological target: T7, Insulin-degrading enzyme (Homo sapiens, UniProt P14735); test: Dose Response: Fluorescence polarization-based cell-based high throughput dose response assay for inhibitors of insulin-degrading enzyme (IDE). [Related pubchem assays: 434962 (Primary screen (IDE inhibitors in singlicate)), 449730 (Counterscreen (Cytotoxicity in triplicate)), 435028 (Confirmation (IDE inhibitors in triplicate)), 434984 (Summary …; type: functional
T7 sequence (P14735 whole entry): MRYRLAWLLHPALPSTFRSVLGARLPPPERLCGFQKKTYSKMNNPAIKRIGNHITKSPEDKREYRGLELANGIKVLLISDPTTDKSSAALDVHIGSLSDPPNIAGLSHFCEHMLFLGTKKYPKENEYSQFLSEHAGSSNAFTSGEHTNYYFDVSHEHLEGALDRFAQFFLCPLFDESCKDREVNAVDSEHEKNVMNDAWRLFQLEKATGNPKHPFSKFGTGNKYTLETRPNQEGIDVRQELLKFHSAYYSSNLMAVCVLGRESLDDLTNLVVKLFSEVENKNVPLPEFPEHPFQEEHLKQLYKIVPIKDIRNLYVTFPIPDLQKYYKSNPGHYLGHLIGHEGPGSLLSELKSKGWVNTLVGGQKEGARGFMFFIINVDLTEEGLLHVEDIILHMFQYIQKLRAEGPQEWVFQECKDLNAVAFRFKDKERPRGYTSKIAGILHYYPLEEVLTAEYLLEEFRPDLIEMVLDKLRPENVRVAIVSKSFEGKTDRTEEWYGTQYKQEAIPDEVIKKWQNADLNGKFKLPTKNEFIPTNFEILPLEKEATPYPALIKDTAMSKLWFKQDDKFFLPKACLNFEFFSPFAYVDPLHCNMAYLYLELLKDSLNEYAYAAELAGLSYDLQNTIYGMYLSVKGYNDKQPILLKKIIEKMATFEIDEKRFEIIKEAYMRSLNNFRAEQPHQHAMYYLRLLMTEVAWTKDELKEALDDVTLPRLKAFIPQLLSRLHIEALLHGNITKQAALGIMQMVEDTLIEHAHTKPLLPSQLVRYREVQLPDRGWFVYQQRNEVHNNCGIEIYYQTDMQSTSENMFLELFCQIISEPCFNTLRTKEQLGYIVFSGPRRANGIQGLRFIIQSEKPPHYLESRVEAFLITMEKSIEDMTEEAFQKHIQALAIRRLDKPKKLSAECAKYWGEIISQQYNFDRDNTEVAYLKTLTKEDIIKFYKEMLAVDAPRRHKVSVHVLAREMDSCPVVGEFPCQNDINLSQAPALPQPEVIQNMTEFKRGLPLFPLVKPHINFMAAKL

Sequence of G-protein coupled receptor 55 (Q9Y2T6 whole entry): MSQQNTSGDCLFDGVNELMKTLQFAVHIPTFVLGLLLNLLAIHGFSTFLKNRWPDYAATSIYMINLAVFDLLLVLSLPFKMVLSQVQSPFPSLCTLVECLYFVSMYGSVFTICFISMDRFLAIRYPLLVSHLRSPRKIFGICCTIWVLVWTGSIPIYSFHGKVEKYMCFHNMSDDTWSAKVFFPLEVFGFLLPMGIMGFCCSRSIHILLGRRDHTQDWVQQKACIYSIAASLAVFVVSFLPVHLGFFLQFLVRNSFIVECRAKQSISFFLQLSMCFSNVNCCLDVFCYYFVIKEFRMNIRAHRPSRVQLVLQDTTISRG
Sequence of Neurotensin receptor type 1 (P30989 whole entry): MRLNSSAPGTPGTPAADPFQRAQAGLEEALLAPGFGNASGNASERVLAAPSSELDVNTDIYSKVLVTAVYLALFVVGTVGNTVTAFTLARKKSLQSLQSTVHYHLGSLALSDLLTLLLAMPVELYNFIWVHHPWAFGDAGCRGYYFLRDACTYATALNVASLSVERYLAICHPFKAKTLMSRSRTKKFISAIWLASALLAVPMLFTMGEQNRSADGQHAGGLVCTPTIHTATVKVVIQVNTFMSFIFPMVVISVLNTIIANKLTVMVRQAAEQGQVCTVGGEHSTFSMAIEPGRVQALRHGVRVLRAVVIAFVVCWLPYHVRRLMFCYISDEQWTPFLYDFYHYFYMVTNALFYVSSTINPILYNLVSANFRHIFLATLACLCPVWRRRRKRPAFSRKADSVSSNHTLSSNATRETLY
Sequence of Glyceraldehyde-3-phosphate dehydrogenase (P04406 whole entry): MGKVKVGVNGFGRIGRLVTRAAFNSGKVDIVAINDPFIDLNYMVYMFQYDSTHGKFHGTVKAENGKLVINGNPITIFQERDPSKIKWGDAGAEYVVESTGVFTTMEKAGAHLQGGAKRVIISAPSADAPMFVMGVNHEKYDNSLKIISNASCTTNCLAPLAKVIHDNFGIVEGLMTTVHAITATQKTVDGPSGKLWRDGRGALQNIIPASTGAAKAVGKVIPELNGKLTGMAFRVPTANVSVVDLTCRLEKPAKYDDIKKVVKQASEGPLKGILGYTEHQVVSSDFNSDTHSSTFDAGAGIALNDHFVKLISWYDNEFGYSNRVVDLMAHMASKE
Sequence of Induced myeloid leukemia cell differentiation protein Mcl-1 (Q07820 whole entry): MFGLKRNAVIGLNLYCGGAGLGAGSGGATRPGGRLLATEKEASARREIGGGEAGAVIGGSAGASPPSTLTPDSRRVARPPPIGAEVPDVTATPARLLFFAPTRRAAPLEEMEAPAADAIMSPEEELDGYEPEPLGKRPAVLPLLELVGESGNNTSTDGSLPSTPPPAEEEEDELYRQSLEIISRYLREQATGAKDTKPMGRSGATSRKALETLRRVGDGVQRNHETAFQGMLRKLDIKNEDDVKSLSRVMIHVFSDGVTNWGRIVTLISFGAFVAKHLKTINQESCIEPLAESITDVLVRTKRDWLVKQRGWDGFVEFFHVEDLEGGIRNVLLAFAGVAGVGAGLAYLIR

CCN(CC)C(=O)CC(c1cc(OC)c(OC)c(OC)c1)c1c(OC)cc(OC)c2c(-c3ccccc3)cc(=O)oc12 (stereo unspecified)
IC50 [1]: 5.26 µM (active) | EC50 [2]: 1.31 µM (active)

COc1ccc(/C=C2/SC(=S)N(CCCC(=O)Nc3cccc(O)c3)C2=O)cc1
AC50 [3]: > 380 µM (inactive) | IC50 [4]: 55.8 µM (inactive) | EC50 (Protein RecA): > 380 µM (inactive)

COC(=O)c1cc(-c2ccc(F)cc2F)[nH]n1
IC50 [5]: 0.192 µM (active) | IC50 [6]: > 10 µM (inconclusive)

CC(=O)Nc1cccc(C(=O)/C=C/c2ccc(Br)cc2)c1
EC50 [7]: 3.18 µM (active) | EC50 [8]: 13.3 µM (active) | EC50 [9]: 3.77 µM (active)

O=C(O)c1cc(-c2ccc(/C=N/n3cnnc3)o2)ccc1O
IC50 [6]: > 100 µM (not active)

Nc1nc(-c2ccco2)nn1C(=O)CCc1ccccc1
IC50 (Prothrombin): 0.0191 µM (active) | IC50 (Bcl-2-like protein 10): > 100 µM (inactive)

CCCc1cc(NCCCn2ccnc2)n2nc(C)c(-c3ccccc3)c2n1
CC50 [10]: > 20 µM (active) | IC50 (cells): 29.1 µM (active) | CC50 [11]: 36.2 µM (active)

CC1CCN(c2ccc(C(=O)O)cc2N)CC1
IC50 (Bcl-2-like protein 10): 30.5 µM (active)

CC(C)(C)OC(=O)N1CCC(NC(=O)c2[nH]cnc2C(=O)N[C@@H](Cc2ccccc2)C(=O)OCc2ccccc2)CC1
EC50 [8]: 32.2 µM (inactive)

COc1ccc(OC)c(C2CC(=O)Nc3cc(OC)c(OC)c(OC)c32)c1 (stereo unspecified)
IC50 [4]: > 80 µM (inactive)

CCc1cccc(CC)c1-n1c(SCC(=O)N2CCc3ccccc3C2)nnc1-c1cccnc1
EC50 [8]: 4.16 µM (active)

CCOC(=O)N1CCN(C(=O)c2ccc3c(c2)N(Cc2cc(C)ccc2C)C(=O)c2ccccc2[S+]3[O-])CC1 (stereo unspecified)
EC50 [2]: 4.83 µM (active)

CCN(c1ccc(N/C=C2/C(=O)N(Cc3ccc(OC)cc3)C(=O)c3ccccc32)cc1)C(C)C
EC50 [2]: 2.01 µM (active)

COc1ccc(-n2c(C)cc(/C=C3\SC(=S)N(Cc4ccco4)C3=O)c2C)cc1
EC50 [12]: > 300 µM (not active) | EC50 [13]: 121 µM (active) | IC50 [14]: 38 µM (not active) | IC50 (Insulin-degrading enzyme): > 55.9 µM (not active)
